We go through 1 molecule from patent US5925618A, “Peptides useful as somatostatin antagonists” (American Cyanamid Company, priority 1998, dated 1999).

Square brackets hold non-standard residues; d marks the D form. Peptide text beside a SMILES is read from it.

In one test the target is T1, rat SSTR2 (Rattus norvegicus, UniProt P30680).
T1 construct: expressed in transfected cells; host or cells: GH4C1 rat pituitary tumor cells
The test is described as follows: cAMP accumulation in forskolin-stimulated GH4 C1/SSTR2 cells. It is filed as cell-based. The source says: A primary effect of SRIF upon mammalian cells is the reduction of cyclic adenosine 3',5'-monophosphate(cAMP) levels, via inhibition of adenylyl cyclase. This is the basis of a common assay for SRIF agonists and antagonists, whereby SRIF agonists reduce artificially stimulated cAMP levels, and SRIF antagonists reverse the effect of SRIF. The rat pituitary tumor cell line GH4 C1 predominantly expresses SSTR2, and responds to SRIF and to forskolin, a stimulator of adenylate cyclase (see C. M. Eppler, et al., J. Biol. Chem., 267, 15603-15612, 1992, incorporated herein by reference). A highly sensitive assay for SRIF agonists and antagonists results from additionally transfecting GH4 C1 cells with the cloned rat SSTR2, (see L. A. Price, et al., Molecular and Cellular Biology, 15, 6188-6195, 1995, incorporated herein by reference). This increases the response to SRIF and provides a greater dynamic range for the measurement of SRIF antagonist activity.
Stimulation of cells. GH4 C1 /SSTR2 cells, grown in DMEM with 10% bovine serum, are released from a tissue culture dish by incubation for several minutes at 37° C. with PBS containing 0.5 mM EDTA. Cells are washed in induction buffer (PBS containing 100 μM IBMX (an inhibitor of cAMP breakdown) and 2 mM CaCl2) at room temperature, and resuspended at 2×10^6 /mL in induction buffer. Into each well of a 96-well tray are added 50 μL of a 2× concentration of stimulants in induction buffer. These include (at final concentration) 1.25 μM forskolin, 100 nM SRIF or 10 nM of the SSTR2-selective agonist MK678 and test peptides at various concentrations. To initiate stimulation of the cells, 50 μL (100,000) cells are added to each well, mixed by shaking 10 seconds on a plate shaker and placed at 37° C. for 15 minutes. Stimulation is arrested and cells are lysed by adding 15 μL 0.33N HCl to each well and incubating the plate for 30 minutes at 37° C. Samples are neutralized by addition of 15 μL 0.25N NaOH/50 mM Hepes pH 7.4. Baseline cAMP levels are determined in samples with no added forskolin or SRIF, and each treatment is performed in triplicate.
cAMP assay. To measure accumulated cAMP in the samples, a radioimmunoassay is employed. The scintillation proximity assay (SPA, Amersham, Arlington Heights, Ill.) allows the rapid measurement of ^125 I cAMP bound to a specific antibody without separating bound radioligand from free radioligand. Each of the following reagents (50 μL) are added per well in a 96-well tray: supernatants from the cell stimulation; ^125 I cAMP; SPA beads conjugated to monkey anti-rabbit IgG antibodies; and rabbit anti-cAMP antibodies. For the standard curve, known amounts of cAMP (0.2-12.8 pmol) are added in place of cell supernatants. The 96-well tray is sealed, shaken at room temperature overnight and measured for bound radioligand in a MicroBeta liquid scintillation counter (Wallac, Gaithersburg, Md.). The standard curve is determined for each experiment by performing a nonlinear regression (exponential decay) analysis of cpm measured for the cAMP standards vs. their log concentrations, and test sample values are determined by using Prism software (Graphpad Software Inc., San Diego, Calif.) and are shown in Table II and FIG. 1. FIG. I illustrates the antagonist activity of Peptide 1.
The intrinsic activity of an SRIF antagonist is the percent reversal of the SSTR2, activation by SRIF or MK678, wherein 0% is defined by cAMP levels in samples treated with forskolin plus SRIF or MK678 and 100% is the cAMP level measured after treatment with forskolin alone. Therefore, increased intrinsic activity of a test compound indicates increased antagonist activity of said test compound.
FIG. […]
An inverse agonist is a compound that is not only a pure antagonist (i.e. lacking agonist activity), but also blocks the constitutive activity of an unoccupied receptor. One indication of inverse agonist activity is the ability of a SRIF antagonist to increase cAMP levels in the absence of added SRIF. […]
A general note: cAMP levels reflect the balance of adenylyl cyclase and phosphodiesterase activity.

The next test concerns Male Sprague-Dawley rats. The test is described as follows: Spontaneous growth hormone secretory pulses in conscious rats. It is filed as in vivo, rat. The settings on record: 300 μg/hr i.v. infusion for two hours. The protocol: Evaluation in conscious rats. Male Sprague-Dawley rats are fitted so as to allow efficient intravenous treatment with control and test compounds as well as frequent blood sampling. Blood samples are tested for growth hormone (GH) levels by radioimmunoassay. Blood samples are taken over a 12 hour period. At a 6 hour time point, peptide 1 is infused intravenously (300 μg/hr) into conscious, freely moving male rats for two hours. Control animals receive saline infusions over the same time period. […] It is known, SRIF is required for growth hormone pulsatility and that an SRIF antagonist abolishes said pulsatility (see Tannenbaum, G. S. and Ling, N., Endocrinology, 115, 1952-1957, 1984, incorporated herein by reference).

T1 sequence (P30680 whole entry): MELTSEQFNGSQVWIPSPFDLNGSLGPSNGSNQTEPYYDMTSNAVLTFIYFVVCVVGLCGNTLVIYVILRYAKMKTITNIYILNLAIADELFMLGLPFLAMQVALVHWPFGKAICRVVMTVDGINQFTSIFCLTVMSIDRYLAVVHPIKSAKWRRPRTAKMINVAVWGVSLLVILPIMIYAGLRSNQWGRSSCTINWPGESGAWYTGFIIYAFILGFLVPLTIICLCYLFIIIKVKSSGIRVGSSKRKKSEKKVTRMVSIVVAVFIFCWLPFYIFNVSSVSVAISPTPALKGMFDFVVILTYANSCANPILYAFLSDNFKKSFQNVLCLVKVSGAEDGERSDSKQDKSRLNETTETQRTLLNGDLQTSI

Regarding `CC[C@@H](C)[C@@H](NC(=O)[C@@H](Cc1ccccc1)NC(=O)[C@@H](Cc1c[nH]cn1)NC(C)=O)C(=O)N[C@H](CCCNC(=N)N)C(=O)N[C@H](Cc1c[nH]c2ccccc12)C(=O)N[C@H](Cc1ccccc1)C(N)=O` [Peptide 1, h-f-i-r-w-f] (Ac-[dH][dF][dI][dR][dW][dF]-NH2), the cAMP is on record as 1.14 pM per 4 × 10^4 cells on rat SSTR2 (Forskolin 1.25 μM + MK 678 10 nM, Peptide 1 1 μM); 2.69 pM per 4 × 10^4 cells at rat SSTR2 (Forskolin 1.25 μM + MK 678 10 nM, Peptide 1 10 μM); 3.32 pM per 4 × 10^4 cells at rat SSTR2 (Forskolin 1.25 μM + MK 678 10 nM, Peptide 1 50 μM); 2.57 pM per 4 × 10^4 cells on rat SSTR2 (Forskolin 1.25 μM, no MK 678, Peptide 1 1 μM); 3.05 pM per 4 × 10^4 cells at rat SSTR2 (Forskolin 1.25 μM, no MK 678, Peptide 1 10 μM); 3.33 pM per 4 × 10^4 cells on rat SSTR2 (Forskolin 1.25 μM, no MK 678, Peptide 1 50 μM). On rat SSTR2 (S-14 or MK678 dose response with or without peptide 1), the “mode of antagonism from agonist dose response curves” value is recorded as “directly competing with the SRIF agonists”. Besides, the “forskolin-stimulated cAMP levels in the absence of SRIF (inverse agonist activity)” value at rat SSTR2 (no added SRIF) is recorded as “causes an increase in forskolin-stimulated cAMP levels even in the absence of SRIF”. In the test with Male Sprague-Dawley rats, the “spontaneous growth hormone secretory pulses” value is “abolition of these pulses”.
